Measurements as given in ChEMBL document CHEMBL2429805, “Studies toward the development of new silicon-containing building blocks for the direct (18)F-labeling of peptides” (J Med Chem, 2013).

Experiments:
Spleen [1] = assay: Biodistribution in spleen of NMRI nude mouse xenografted with human PC3 cells at 4.8 to 10.5 MBq after 117 mins by gamma-counting analysis in presence of bombesin; format: ADME, organism-based, PC-3; conditions: in vivo, 1.95 h
Blood [2] = assay: Biodistribution in blood of NMRI nude mouse xenografted with human PC3 cells at 4.8 to 10.5 MBq after 117 mins by gamma-counting analysis in presence of bombesin; format: ADME, organism-based, PC-3; conditions: in vivo, 1.95 h
Lung [3] = assay: Biodistribution in lung of NMRI nude mouse xenografted with human PC3 cells at 8.3 to 15.3 MBq after 117 mins by gamma-counting analysis; format: ADME, organism-based, PC-3; conditions: in vivo, 1.95 h
Spleen [4] = assay: Biodistribution in spleen of NMRI nude mouse xenografted with human PC3 cells at 8.3 to 15.3 MBq after 117 mins by gamma-counting analysis; format: ADME, organism-based, PC-3; conditions: in vivo, 1.95 h
Pancreas [5] = assay: Biodistribution in pancreas of NMRI nude mouse xenografted with human PC3 cells at 4.8 to 10.5 MBq after 117 mins by gamma-counting analysis in presence of bombesin; format: ADME, organism-based, PC-3; conditions: in vivo, 1.95 h
Blood [6] = assay: Biodistribution in blood of NMRI nude mouse xenografted with human PC3 cells at 8.3 to 15.3 MBq after 117 mins by gamma-counting analysis; format: ADME, organism-based, PC-3; conditions: in vivo, 1.95 h
Mus musculus [7] = assay: Biodistribution in tumor of NMRI nude mouse xenografted with human PC3 cells at 4.8 to 10.5 MBq after 117 mins by gamma-counting analysis in presence of bombesin; format: ADME, organism-based, Neoplasm, PC-3; conditions: in vivo, 1.95 h
[8] = Lipophilicity, log D of the compound in 1-octanol/PBS buffer at pH 7.4 after 15 mins by shake flask method; format: physicochemical
[9] = Ratio of biodistribution in tumor to blood of NMRI nude mouse xenografted with human PC3 cells at 8.3 to 15.3 MBq after 117 mins by gamma-counting analysis; format: ADME, organism-based, PC-3; conditions: tumour, 1.95 h
Liver [10] = assay: Biodistribution in liver of NMRI nude mouse xenografted with human PC3 cells at 4.8 to 10.5 MBq after 117 mins by gamma-counting analysis in presence of bombesin; format: ADME, organism-based, PC-3; conditions: in vivo, 1.95 h
[11] = Stability of the compound in PBS buffer up to 2 hrs; format: physicochemical
Mus musculus [12] = assay: Biodistribution in abdominal region of NMRI nude mouse xenografted with human PC3 cells at 8.3 to 15.3 MBq after 60 to 105 mins by PET imaging analysis; format: ADME, organism-based, Abdomen, PC-3; conditions: in vivo
Pancreas [13] = assay: Biodistribution in pancreas of NMRI nude mouse xenografted with human PC3 cells at 8.3 to 15.3 MBq after 117 mins by gamma-counting analysis; format: ADME, organism-based, PC-3; conditions: in vivo, 1.95 h
Mus musculus [14] = assay: Biodistribution in tumor of NMRI nude mouse xenografted with human PC3 cells at 4.8 to 10.5 MBq after 60 to 105 mins by PET imaging analysis in presence of bombesin; format: ADME, organism-based, Neoplasm, PC-3; conditions: in vivo
Mus musculus [15] = assay: Biodistribution in urinary bladder of NMRI nude mouse xenografted with human PC3 cells at 8.3 to 15.3 MBq after 60 to 105 mins by PET imaging analysis; format: ADME, organism-based, PC-3; conditions: in vivo
Mus musculus [16] = assay: Biodistribution in gallbladder of NMRI nude mouse xenografted with human PC3 cells at 4.8 to 10.5 MBq after 117 mins by gamma-counting analysis in presence of bombesin; format: ADME, organism-based, Gall bladder, PC-3; conditions: in vivo, 1.95 h
[17] = Ratio of biodistribution in tumor to blood of NMRI nude mouse xenografted with human PC3 cells at 4.8 to 10.5 MBq after 117 mins by gamma-counting analysis in presence of bombesin; format: ADME, organism-based, PC-3; conditions: tumour, 1.95 h
Mus musculus [18] = assay: Biodistribution in prostate of NMRI nude mouse xenografted with human PC3 cells at 8.3 to 15.3 MBq after 117 mins by gamma-counting analysis; format: ADME, organism-based, Prostate gland, PC-3; conditions: in vivo, 1.95 h
Liver [19] = assay: Biodistribution in liver of NMRI nude mouse xenografted with human PC3 cells at 8.3 to 15.3 MBq after 117 mins by gamma-counting analysis; format: ADME, organism-based, PC-3; conditions: in vivo, 1.95 h
Intestine [20] = assay: Biodistribution in intestine of NMRI nude mouse xenografted with human PC3 cells at 8.3 to 15.3 MBq after 117 mins by gamma-counting analysis; format: ADME, organism-based, PC-3; conditions: in vivo, 1.95 h
Kidney [21] = assay: Biodistribution in kidney of NMRI nude mouse xenografted with human PC3 cells at 8.3 to 15.3 MBq after 117 mins by gamma-counting analysis; format: ADME, organism-based, PC-3; conditions: in vivo, 1.95 h
Intestine [22] = assay: Biodistribution in intestine of NMRI nude mouse xenografted with human PC3 cells at 4.8 to 10.5 MBq after 117 mins by gamma-counting analysis in presence of bombesin; format: ADME, organism-based, PC-3; conditions: in vivo, 1.95 h
Mus musculus [23] = assay: Biodistribution in tumor of NMRI nude mouse xenografted with human PC3 cells at 8.3 to 15.3 MBq after 60 to 105 mins by PET imaging analysis; format: ADME, organism-based, Neoplasm, PC-3; conditions: in vivo
Mus musculus [24] = assay: Biodistribution in prostate of NMRI nude mouse xenografted with human PC3 cells at 4.8 to 10.5 MBq after 117 mins by gamma-counting analysis in presence of bombesin; format: ADME, organism-based, Prostate gland, PC-3; conditions: in vivo, 1.95 h
Kidney [25] = assay: Biodistribution in kidney of NMRI nude mouse xenografted with human PC3 cells at 4.8 to 10.5 MBq after 117 mins by gamma-counting analysis in presence of bombesin; format: ADME, organism-based, PC-3; conditions: in vivo, 1.95 h
Bone = assay: Biodistribution in bone of NMRI nude mouse xenografted with human PC3 cells at 8.3 to 15.3 MBq after 60 to 105 mins by PET imaging analysis; format: ADME, organism-based, Bone element, PC-3; conditions: in vivo
Mus musculus [26] = assay: Biodistribution in gallbladder of NMRI nude mouse xenografted with human PC3 cells at 8.3 to 15.3 MBq after 117 mins by gamma-counting analysis; format: ADME, organism-based, Gall bladder, PC-3; conditions: in vivo, 1.95 h
Lung [27] = assay: Biodistribution in lung of NMRI nude mouse xenografted with human PC3 cells at 4.8 to 10.5 MBq after 117 mins by gamma-counting analysis in presence of bombesin; format: ADME, organism-based, PC-3; conditions: in vivo, 1.95 h
Mus musculus [28] = assay: Biodistribution in tumor of NMRI nude mouse xenografted with human PC3 cells at 8.3 to 15.3 MBq after 117 mins by gamma-counting analysis; format: ADME, organism-based, Neoplasm, PC-3; conditions: in vivo, 1.95 h

SMILES: CC(C)C[C@H](NC(=O)C[C@H](O)[C@H](CC(C)C)NC(=O)[C@H](Cc1cnc[nH]1)NC(=O)CN(C)C(=O)[C@@H](NC(=O)[C@H](C)NC(=O)[C@H](Cc1c[nH]c2ccccc12)NC(=O)[C@H](CCC(N)=O)NC(=O)CCCCNC(=O)[C@H](CS(=O)(=O)O)NC(=O)[C@H](CS(=O)(=O)O)NC(=O)Cc1ccc([Si]([18F])(C(C)(C)C)C(C)(C)C)cc1)C(C)C)C(N)=O
- Drug uptake (Spleen [1]): 0.57 % ID/g
- Drug uptake (Blood [2]): 1.17 % ID/g
- Drug uptake (Lung [3]): 0.65 % ID/g
- Drug uptake (Spleen [4]): 0.57 % ID/g
- Drug uptake (Pancreas [5]): 3.4 % ID/g
- Drug uptake (Blood [6]): 0.91 % ID/g
- Drug uptake (Mus musculus [7]): 1.24 % ID/g
- logD at 0.25 h [8]: 0.3
- Ratio [9]: 2
- Drug uptake (Liver [10]): 5.6 % ID/g
- Stability [11]: Stable
- Drug uptake (Mus musculus [12]): Active
- Drug uptake (Pancreas [13]): 10 % ID/g
- Drug uptake (Mus musculus [14]): Active
- Drug uptake (Mus musculus [15]): Active
- Drug uptake (Mus musculus [16]): 236 % ID/g
- Ratio [17]: 1.1
- Drug uptake (Mus musculus [18]): 0.37 % ID/g
- Drug uptake (Liver [19]): 4.4 % ID/g
- Drug uptake (Intestine [20]): 21 % ID/g
- Drug uptake (Kidney [21]): 1.7 % ID/g
- Drug uptake (Intestine [22]): 16 % ID/g
- Drug uptake (Mus musculus [23]): Active
- Drug uptake (Mus musculus [24]): 0.7 % ID/g
- Drug uptake (Kidney [25]): 2.1 % ID/g
- Drug uptake (Bone): Not Active
- Drug uptake (Mus musculus [26]): 194 % ID/g
- Drug uptake (Lung [27]): 1.4 % ID/g
- Drug uptake (Mus musculus [28]): 1.8 % ID/g
